The text below walks through data of patent publication US12083182B2, “Controlled-release CNP agonists with increased NEP stability” (ASCENDIS PHARMA GROWTH DISORDERS A/S, priority 2016, dated 2024).

The nature of data set [1]: Evaluation of cardiovascular effects in the conscious telemetered mouse (subcutaneous administration). The class given is in vivo, Crl:CD1(ICR) mice. Conditions: 800 μg CNP-38 (eq)/kg sc. The protocol:
Male Crl:CD1(ICR) mice (age range 8-13 weeks and body weight range 27.3-35.6 g at start of dosing) were surgically implanted with a TA11PA-C10 telemetry transmitter (Data Sciences International (DSI)) in the carotid artery. The body of the transmitter was placed subcutaneously in the lateral flank of the mouse. The mice were dosed subcutaneously in a latin square crossover design with at least 72 hours between dosing occasions. […] At least four mice were included at each dose level. Blood pressure (systolic (SAP), diastolic (DAP) and mean (MAP) and heart rate (HR, derived from blood pressure), were recorded using a digital data capture system linked with a DSITM Ponemah data acquisition and analysis system. The capture system allowed recording of the cardiovascular parameters whilst the mice were in individual cages. On the day of each test session the animals were weighed and a predose recording was performed for at least 60 min prior to dosing. Each mouse was returned to the home cage and the cardiovascular parameters were recorded for approximately 48 hours postdose. Blood pressure and HR were reported at the following time points: −30, −20, −10, 5, 15 and 30 min postdose and 1, 2, 6, 12, 18, 24, 30, 36, 42 and 48 hours postdose. Each time point was presented as the average value of five minute's recording prior to the time point. The monitoring period was selected to cover exposure to the test items both prior to and after Tmax.

A short description of data set [2]: Pharmacokinetic profile of CNP-38 after subcutaneous single-dose administration to cynomolgus monkeys. It counts as in vivo. The conditions noted are these: single s.c. 40 μg/kg.
Procedure: This study was performed in order to test the pharmacokinetics of CNP-38 after subcutaneous (s.c.) administration in cynomolgus monkeys. Three male monkeys (2-4 years old, 3-5 kg) received a single s.c. injection at a dose of 40 μg/kg of CNP-38. Blood samples were collected at 5, 10, 15, 30, 45 min and 1, 2, 4, 8 hours upon dose.
Method: Plasma levels of CNP were analysed using a commercially available competitive radioimmuno-assay (RK-012-03, Phoenix Pharmaceuticals, CA). The assay was applied essentially as described by the manufacturer. The assay is based on competitive binding between 125I-labelled CNP (supplied in the kit) and unlabeled CNP (from study sample or calibrants) to an anti-CNP antibody. […] By measuring the amount of 125I-labelled CNP bound as a function of the concentration of peptide, it is possible to construct a calibration curve from which the concentration of peptide in the sample can be determined.
A few changes to the supplied assay protocol were made. These changes included using in-house CNP calibrant and QC samples to secure consistency between assay runs. […] Due to matrix effects in monkey plasma, the minimal required dilution was set at 1:10, yielding an assay range of 150-1080 μg/mL CNP.
The conditions of data set [3]: in vivo; cited from earlier work.
For data set [4] the following is noted: doses up to 15 μg/kg, healthy volunteers; cited from earlier work.

As a reminder, the half-life is the time in which the quantity being followed falls by half.

Turning to `CC[C@H](C)[C@@H]1NC(=O)[C@H](CCCNC(=N)N)NC(=O)[C@H](CC(=O)O)NC(=O)[C@H](CC(C)C)NC(=O)[C@H](CCCCN)NC(=O)[C@H](CC(C)C)NC(=O)CNC(=O)[C@H](Cc2ccccc2)NC(=O)[C@@H](NC(=O)CNC(=O)[C@H](CCCCN)NC(=O)[C@H](CO)NC(=O)[C@H](CC(C)C)NC(=O)CNC(=O)[C@H](CCCCN)NC(=O)[C@H](CCCCN)NC(=O)[C@H](CC(N)=O)NC(=O)[C@H](C)NC(=O)CNC(=O)[C@H](CCCCN)NC(=O)[C@H](Cc2ccc(O)cc2)NC(=O)[C@H](CCCCN)NC(=O)[C@H](CCCNC(=N)N)NC(=O)[C@H](C)NC(=O)[C@H](CC(N)=O)NC(=O)[C@@H]2CCCN2C(=O)[C@H](Cc2c[nH]cn2)NC(=O)[C@H](CCC(=O)O)NC(=O)[C@H](CCC(N)=O)NC(=O)[C@@H](N)CC(C)C)CSSC[C@@H](C(=O)O)NC(=O)CNC(=O)[C@H](CC(C)C)NC(=O)CNC(=O)[C@H](CO)NC(=O)[C@H](CCSC)NC(=O)[C@H](CO)NC(=O)CNC1=O` [CNP-38], the “effect on heart rate (HR)” value in data set [1] (up to 48 hours postdose) is “not impacted”. Also, the “effect on blood pressure (MAP)” value in data set [1] (5, 15 and 30 min post dose, CNP-38: 3 of 4 animals) is “significant decrease in MAP”. Besides, the “MAP 5 min post dose (mean±SD)” value in data set [1] (5 min post dose) came to 102.0 ± 7.5 mmHg. Further, in data set [1] (15 min post dose), the “MAP 15 min post dose (mean±SD)” value is 89.5 ± 29.4 mmHg. The “MAP 30 min post dose (mean±SD)” value in data set [1] (30 min post dose) came out at 99.5 ± 25.2 mmHg. In addition, the “MAP predose (mean±SD)” value in data set [1] (predose) was 106.8 ± 13.4 mmHg. In addition, the tolerability result in data set [2] is listed as “well tolerated”.

Take BMN-111: in data set [3], the half-life was 20 min. Also, in data set [4], the blood pressure effect result is recorded as “mild hypotension”.
